Reference: patent US20250129430A1, “HIGH ATP-AFFINITY PROTEIN AS THERAPEUTIC TARGET FOR INTRACTABLE CANCER MOLECULAR SUBTYPES AND INHIBITOR THEREOF” (VeraVerse Co., Ltd., priority 2021, published 2025)
Counter-ions that a name gives are not always drawn.

Tests used:
Assay in all cases: Cell viability drug screen, 12-point dose-response AUC
Assay type in all cases: cell-based, human
[1] = tested on: SNU216; details: SNU216 cells (non-SEM subtype); 72 hours
Procedure, shortened: (§1)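 Each cell line receives a twelve-point half-log titration of drug beginning 24 h after plating 5×10^3 cells per well. Following 72 h culture at 37 °C, luminescent signal is recorded and expressed versus vehicle. AUC is derived by the trapezoidal method.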

[2] = tested on: SNU668; details: SNU668 cells (SEM subtype); 72 hours
Procedure, shortened: (§2)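 Twelve half-log concentrations per compound were tested on gastric cancer cells with an EMT phenotype (5×10^3/well, dosed 24 h post-seeding). Viability after 72 h was quantified via luminescence relative to 0.5% DMSO, and repeats were averaged.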

[3] = tested on: Hs746T; details: Hs746T cells (SEM subtype); 72 hours
Procedure, shortened: as §2

[4] = tested on: NCC59; details: NCC59 cells; 72 hours
Procedure, shortened: as §2

[5] = tested on: SNU1; details: SNU1 cells; 72 hours
Procedure, shortened: as §2

[6] = tested on: YCC3; details: YCC3 cells; 72 hours
Procedure, shortened: as §2

[7] = tested on: MKN74; details: MKN74 cells; 72 hours
Procedure, shortened: as §1

[8] = tested on: SNU620; details: SNU620 cells; 72 hours
Procedure, shortened: as §2

[9] = tested on: SNU16; details: SNU16 cells; 72 hours
Procedure, shortened: as §2

[10] = tested on: SNU484; details: SNU484 cells (SEM subtype); 72 hours
Procedure, shortened: as §2

[11] = tested on: KATO3; details: KATO3 cells; 72 hours
Procedure, shortened: as §2

[12] = tested on: YCC11; details: YCC11 cells (SEM subtype); 72 hours
Procedure, shortened: as §2

[13] = tested on: SNU719; details: SNU719 cells; 72 hours
Procedure, shortened: as §1

[14] = tested on: NCC24; details: NCC24 cells; 72 hours
Procedure, shortened: as §2

[15] = tested on: MKN28; details: MKN28 cells; 72 hours
Procedure, shortened: as §2

[16] = tested on: SNU1750; details: SNU1750 cells (SEM subtype); 72 hours
Procedure, shortened: as §2

[17] = tested on: MKN1; details: MKN1 cells; 72 hours
Procedure, shortened: as §2

[18] = tested on: NCI_N87; details: NCI_N87 cells; 72 hours
Procedure, shortened: as §2

[19] = tested on: AGS; details: AGS cells (non-SEM subtype); 72 hours
Procedure, shortened: as §1

[20] = tested on: SNU638; details: SNU638 cells; 72 hours
Procedure, shortened: as §2

[21] = tested on: YCC2; details: YCC2 cells; 72 hours
Procedure, shortened: as §2

[22] = tested on: OCUM1; details: OCUM1 cells; 72 hours
Procedure, shortened: as §2

[23] = tested on: NCC19; details: NCC19 cells; 72 hours
Procedure, shortened: as §2

[24] = tested on: MKN45; details: MKN45 cells (non-SEM subtype); 72 hours
Procedure, shortened: as §1

[25] = tested on: SNU1967; details: SNU1967 cells; 72 hours
Procedure, shortened: as §2

[26] = tested on: SNU601; details: SNU601 cells; 72 hours
Procedure, shortened: as §2

[27] = tested on: SK4; details: SK4 cells (SEM subtype); 72 hours
Procedure, shortened: as §2

[28] = tested on: NCC20; details: NCC20 cells; 72 hours
Procedure, shortened: as §2

[29] = tested on: FU97; set-up: Average Area Under the Viability Curve (AUC), AUC norm value: scale not given here; details: FU97 cells; 72 hours
Procedure, shortened: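 Trapezoidal AUC of a 12-point, DMSO-normalized dose-response curve. Luminescent viability was measured after 72 h of exposure at 37° C to half-log serial dilutions (0.5% DMSO control), dosed 24 h after plating FU97 cells at 5×10^3 per well.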

SMILES | Average Area Under the Viability Curve (AUC), AUC norm value [1] | Average Area Under the Viability Curve (AUC), AUC norm value [2] | Average Area Under the Viability Curve (AUC), AUC norm value [3] | Average Area Under the Viability Curve (AUC), AUC norm value [4] | Average Area Under the Viability Curve (AUC), AUC norm value [5] | Average Area Under the Viability Curve (AUC), AUC norm value [6] | Average Area Under the Viability Curve (AUC), AUC norm value [7] | Average Area Under the Viability Curve (AUC), AUC norm value [8] | Average Area Under the Viability Curve (AUC), AUC norm value [9] | Average Area Under the Viability Curve (AUC), AUC norm value [10] | Average Area Under the Viability Curve (AUC), AUC norm value [11] | Average Area Under the Viability Curve (AUC), AUC norm value [12] | Average Area Under the Viability Curve (AUC), AUC norm value [13] | Average Area Under the Viability Curve (AUC), AUC norm value [14] | Average Area Under the Viability Curve (AUC), AUC norm value [15] | Average Area Under the Viability Curve (AUC), AUC norm value [16] | Average Area Under the Viability Curve (AUC), AUC norm value [17] | Average Area Under the Viability Curve (AUC), AUC norm value [18] | Average Area Under the Viability Curve (AUC), AUC norm value [19] | Average Area Under the Viability Curve (AUC), AUC norm value [20] | also measured
CO[C@@H](C(=O)N1Cc2n[nH]c(NC(=O)c3ccc(N4CCN(C)CC4)cc3)c2C1)c1ccccc1 [Danusertib (PHA-739358), Danusertib] | 0 | 1.049 | 1.565 | 1.632 | −2.274 | 0.7949 | 0.1321 | −2.616 | −3.76 | −1.537 | −0.3046 | −1.357 | 3.935 | 0.9879 | 1.245 | −2.3091 | −0.8271 | 2.122 | −1.034 | −0.2145 | Average Area Under the Viability Curve (AUC), AUC norm value [21]: −0.9901; Average Area Under the Viability Curve (AUC), AUC norm value [22]: 0.8742; Average Area Under the Viability Curve (AUC), AUC norm value [23]: 1.885; Average Area Under the Viability Curve (AUC), AUC norm value [24]: 2.103; Average Area Under the Viability Curve (AUC), AUC norm value [25]: 0.03541; Average Area Under the Viability Curve (AUC), AUC norm value [26]: 2.877; Average Area Under the Viability Curve (AUC), AUC norm value [27]: −0.6677; Average Area Under the Viability Curve (AUC), AUC norm value [28]: −4.082; Average Area Under the Viability Curve (AUC), AUC norm value [29]: −2.488
COc1cccc2c1C(=O)c1c(O)c3c(c(O)c1C2=O)C[C@@](O)(C(C)=O)C[C@@H]3O[C@H]1C[C@H](N)[C@H](O)[C@H](C)O1 [Daunorubicin HCl (Daunomycin HCl), Daunorubicin HCl] | 0.4507 | −0.9142 | 0.1484 | −0.5161 | −0.7605 | 2.699 | 1.215 | −1.239 | −1.065 | −1.299 | 6.288 | −1.742 | 3.416 | −0.8801 | 2.146 | −0.7795 | −0.2877 | 4.5372 | −1.2278 | −1.229 | Average Area Under the Viability Curve (AUC), AUC norm value [21]: 1.127; Average Area Under the Viability Curve (AUC), AUC norm value [22]: 0.7066; Average Area Under the Viability Curve (AUC), AUC norm value [23]: 0.9357; Average Area Under the Viability Curve (AUC), AUC norm value [24]: 2.949; Average Area Under the Viability Curve (AUC), AUC norm value [25]: −1.481; Average Area Under the Viability Curve (AUC), AUC norm value [26]: 1.207; Average Area Under the Viability Curve (AUC), AUC norm value [27]: 0; Average Area Under the Viability Curve (AUC), AUC norm value [28]: −0.7736; Average Area Under the Viability Curve (AUC), AUC norm value [29]: 0.3965
COc1cccc2c1C(=O)c1c(O)c3c(c(O)c1C2=O)C[C@@](O)(C(=O)CO)C[C@@H]3O[C@H]1C[C@H](N)[C@H](O)[C@H](C)O1 [Doxorubicin (Adriamycin), Doxorubicin] | 0.7466 | −0.3909 | −0.08449 | 1.231 | 0 | 2.8776 | 1.522 | −0.2009 | −0.0398 | −0.8418 | 7.9338 | −1.877 | 4.66 | −0.6126 | 2.98 | −0.9576 | −0.2016 | 6.891 | −1.081 | −0.3342 | Average Area Under the Viability Curve (AUC), AUC norm value [21]: 1.4121; Average Area Under the Viability Curve (AUC), AUC norm value [22]: 0.6788; Average Area Under the Viability Curve (AUC), AUC norm value [23]: 2.867; Average Area Under the Viability Curve (AUC), AUC norm value [24]: 2.505; Average Area Under the Viability Curve (AUC), AUC norm value [25]: −0.8787; Average Area Under the Viability Curve (AUC), AUC norm value [26]: 4.481; Average Area Under the Viability Curve (AUC), AUC norm value [27]: 0.213; Average Area Under the Viability Curve (AUC), AUC norm value [28]: −0.4879; Average Area Under the Viability Curve (AUC), AUC norm value [29]: −1.237
